According to paper PMC3828334, “Tumor Cell Death Mediated by Peptides That Recognize Branched Intermediates of DNA Replication and Repair” (PLoS ONE, 2013):
Read-outs that look alike come from different tables or passages of the source. Non-standard residues stand in square brackets, D forms with d. Residues, ends and D or L forms follow the SMILES beside them.

What was measured:
PC3 cells [1] = settings: for cell survival: MTT
Description: 20,000 PC3 cells were plated overnight in 96 well plates (Costar) at a concentration of 200,000 cells/ml. They are treated with the peptides, doxorubicin, docetaxel alone, or in combination for different time period incubation and the cell viability was determined by MTT assay as described. The percentage survival of the cells with different treatments was calculated using DMSO-vehicle control-treated cells as the standard.

Chk2 in PC3 cells = experiment: Phospho-Chk2 by flow cytometry; format: cell-based; settings: PC3, 1 µM doxorubicin on its own, 48 h
Description: They were subsequently treated with either 50-200 μM […] or 50-100 μM […] or 0.5-1 μM doxorubicin or combination treatment for 0, 12, 24, 36 and 48 h. […] Samples were analyzed using a Becton Dickinson FACS Canto flow cytometer at a forward scatter voltage of 25 V, side-scatter voltage of 400 V, and FITC channel at a voltage of 400 V.

HeLa cells = experiment: TUNEL assay, HeLa, with z-VAD-fmk or z-FA-fmk; format: cell-based
Description: 600,000 PC3 cells or 500,000 HeLa cells were plated in 60-mm dishes or 6-well plates respectively to allow them to attach overnight at 37°C with 5% CO2. PC3 cells were subsequently treated with appropriate treatments for 24, 36 and 48 h while HeLa cells were treated with 1 µl of either the caspase inhibitor z-VAD-fmk or z-FA-fmk (both from Biovision), containing appropriate treatments, for 24 h. The cells were fixed with 4% paraformaldehyde for 30 min and permeabilized with 0.1% Triton X-100 in 0.1% sodium citrate buffer for 3 mins. Labeled dUTP were added along with the terminal deoxynucleotidyl transferase dUTP nick end labeling (TUNEL) (TUNEL kit from Roche) as described in the kit. Samples were analyzed using a Becton Dickinson FACS Canto flow cytometer as specified above.

[2] = tested on: Htog1 cells (variant of HeLa cells); experiment: Cytochrome C release / TMRE assay for apoptosis; format: cell-based; settings: 150 µM etoposide, 24 h, positive control
Description: 200,000 Htog1 cells (variant of HeLa cells, a generous gift from Drs. Terrence Frey and Maria Guo) were seeded on cover slips mounted on 35 mm microwell petri dishes (Mattek Corp, Ashland, MA) with DMEM supplemented with 10% FBS and allowed to attach overnight at 37°C in 5% CO2. The media was replaced with 1 ml of the appropriate treatment and incubated for 24 h. After 23 h of treatment, 50 µM tetramethyl rhodamine ethyl ester perchlorate (TMRE) solution was added to each well (final concentration 50 nM) and incubated for the remaining hour. Cytochrome C release and loss of TMRE staining were determined in Z-series images acquired using a Leica TCS SP2 inverted confocal microscope. GFP was excited using 488 nm wavelength from an Ar/Kr laser attenuated to 33%, and the emitted fluorescence detected at 497–553 nm. TMRE fluorescence was excited using a 543 nm wavelength from an Ar/Kr laser attenuated to 35%, and the emitted fluorescence detected at 555–620 nm. Each cell was analyzed for release of GFP (GFP channel), loss of mitochondrial membrane potential (TMRE loss) or morphological abnormalities associated with apoptosis, and the % cells positive for each hallmark was calculated for the various treatments.

PC3 cells [3] = experiment: HPLC determination of intracellular and extracellular peptide concentration; format: in vitro ADME
Description: 500,000 HeLa or 400,000 PC3 cells were plated in each well of the 6-well dishes (Costar) and allowed to attach overnight at 37°C with 5% CO2. The cells were treated with d-wrwycr or d-wrwyrggrywrw for 24 or 48 h respectively. For PC3 cells media along with the dodecamer treatments were collected for a separate run in HPLC. PC3 or HeLa cells were lysed using a lysis buffer containing 0.71% NP40, 71 mM Tris (pH 7.5), 0.71 mM EDTA and 212 mM NaCl on ice for 5–10 mins. The lysates were centrifuged at 13,000 g for 7 mins to clear cellular debris. The samples were analyzed by HPLC (Beckman Coulter System Gold BioEssential 126/168) using a Phenomonex Jupiter 4 micron Proteo 90A C18 hydrophobic column to detect the peptides within the cells. […] The intracellular concentration was calculated by taking into account the area under the peptide peaks, using the integration function of 32 Karat software (Beckman Coulter, Fullerton, California), and comparing them to the standard curve of the peptide. […] The extracellular concentration of wrwyrggrywrw was calculated by running the media similarly in HPLC and comparing them to the standard curve of wrwyrggrywrw.
To investigate whether peptide wrwycr or wrwyrggrywrw accumulated within cells, the concentration of the unlabeled and unmodified peptides was directly determined using an HPLC-based method. […]

LnCAP cells = format: cell-based; settings: 48 h
DuPro-1 cells = format: cell-based; settings: 48 h
[4] = tested on: GRP78 promoter in HeLa cells; experiment: Luciferase reporter assay for ER stress; format: cell-based; settings: positive control
Description: HeLa cells were transfected with either either 15 µg of plasmid DJT208, carrying the GRP78 promoter (pGRP78) driving the ER-stress response elements ERSE 1, ERSE 2 and ERSE 3 upstream of the luciferase gene, or 15 µg of the plasmid GL2P, carrying the luciferase gene driven by the SV40 promoter (pSV40). All cells were also co-transfected with 10 µg of the PB1 plasmid, carrying the β-galactosidase reporter transcribed by the SV40 promoter, as a transfection control. [The plasmids were generous gifts from Dr. Peter Belmont from Christopher Glembotski's Lab in SDSU]. After 24 h the cells were treated with increasing concentrations of wrwycr (100, 150 and 200 µM) for 24 h and the luciferase activity was measured using an OptocompII Luminometer. Tunicamycin (TM), a known inducer of ER stress, was used as a positive control for the experiment ER stress was calculated as the fold increase of luciferase gene expression from the GRP78 promoter over that from the SV40 promoter of pGL2P for the different concentrations of the peptide over DMSO, which is the solvent for the peptide, or over the media in the case of TM.

For `CC(=O)O[C@@]12CO[C@@H]1C[C@H](O)[C@@]1(C)C(=O)[C@H](O)C3=C(C)[C@@H](OC(=O)[C@H](O)[C@@H](NC(=O)OC(C)(C)C)c4ccccc4)C[C@@](O)([C@@H](OC(=O)c4ccccc4)[C@H]21)C3(C)C` [docetaxel], which cell survival (PC3 cells [1]; PC3, 10 nM docetaxel, 48 h) is on record?
The cell survival was 90%.

And the cell survival (PC3 cells [1]; PC3, 50 nM docetaxel, 48 h)?
Its cell survival is 80%.

What does the source list for `COc1cccc2c1C(=O)c1c(O)c3c(c(O)c1C2=O)C[C@@](O)(C(=O)CO)C[C@@H]3O[C@H]1C[C@H](N)[C@H](O)[C@H](C)O1` [doxorubicin]?
cell survival (PC3 cells [1]; PC3, 1 µM doxorubicin alone, time course, evident at 36 h (Figure 9B)): 80%; cell survival (PC3 cells [1]; PC3, 2.5 µM doxorubicin alone, 48 h): 73%; cellular population with activated Chk2 (Chk2 in PC3 cells): 50%

With `COc1cc([C@@H]2c3cc4c(cc3[C@@H](O[C@@H]3O[C@@H]5CO[C@@H](C)O[C@H]5[C@H](O)[C@H]3O)[C@H]3COC(=O)[C@H]23)OCO4)cc(OC)c1O` [etoposide, reference compound] as the molecule, how does the TUNEL-positive cells (HeLa cells; 1.3 µM etoposide alone) read?
The TUNEL-positive cells was less than 2%.

What about the “cytochrome C release and mitochondrial membrane potential” value [2] of the same molecule?
Its value is “loss of mitochondrial membrane potential and release of cytC”.

Which TUNEL-positive cells (HeLa cells; 10 mM hydroxyurea alone) does the source give for `NC(=O)NO` [hydroxyurea] here?
Its TUNEL-positive cells is less than 2%.

With `OC[C@@H](O)[C@@H](O)[C@H](O)[C@@H](O)CO` [sorbitol] as the molecule, how does the TUNEL-positive cells (HeLa cells; 400 mM sorbitol with mock inhibitor z-FA-fmk) read?
The TUNEL-positive cells was roughly 80%.

What about the TUNEL-positive cells (HeLa cells; 400 mM sorbitol with z-VAD-fmk inhibitor) of the same molecule?
The TUNEL-positive cells was less than 10%.

With `N=C(N)NCCC[C@@H](NC(=O)CNC(=O)CNC(=O)[C@@H](CCCNC(=N)N)NC(=O)[C@@H](Cc1ccc(O)cc1)NC(=O)[C@@H](Cc1c[nH]c2ccccc12)NC(=O)[C@@H](CCCNC(=N)N)NC(=O)[C@H](N)Cc1c[nH]c2ccccc12)C(=O)N[C@H](Cc1ccc(O)cc1)C(=O)N[C@H](Cc1c[nH]c2ccccc12)C(=O)N[C@H](CCCNC(=N)N)C(=O)N[C@H](Cc1c[nH]c2ccccc12)C(N)=O` [wrwyrggrywrw] (H-[dW][dR][dW][dY][dR]GG[dR][dY][dW][dR][dW]-NH2) as the molecule, how does the intracellular concentration (PC3 cells [3]; 25 µM input dose, PC3 cells, 48 h, cell lysate soluble fraction, HPLC C18 against standard curve, cell volume 1.6–2.4 pl) read?
The intracellular concentration was roughly 1 mM.

What about the “peptide in the media less than input” value (PC3 cells [3]; media with 10% FBS after treatment of PC3 cells, several input concentrations, HPLC (Figure 2Aii)) of the same molecule?
The value was 5–10%.

And the IC50 (PC3 cells [1]; 48 h)?
Its IC50 is 50 µM.

What about the IC50 (LnCAP cells) of the same molecule?
The IC50 was 25 µM.

And the IC50 (DuPro-1 cells)?
Its IC50 is 25 µM.

What does the source list for Tunicamycin?
pGRP78 Units ([4]; concentration not given): 425255±16205; pSV40 Units ([4]; concentration not given): 4606±362.1; pGRP78/pSV40 ([4]; over the media): 20.0±1.36; pGRP78 Fold change ([4]; over the media): 7.9±0.09; pSV40 Fold change ([4]; over the media): 0.4±0.02
